Experimental data from ChEMBL document CHEMBL1129909, “Potent non-peptidic dual inhibitors of endothelin-converting enzyme and neutral endopeptidase 24.11” (Bioorg Med Chem Lett, 1997).

How the values were obtained:
[1] = molecular target: T1, Endothelin-converting enzyme 1 (Homo sapiens) (UniProt P42892); experiment: In vitro inhibition to recombinant human endothelin converting enzyme; design: concentration or dose not given beside the values; conditions: concentration not given here
T1 sequence (whole entry): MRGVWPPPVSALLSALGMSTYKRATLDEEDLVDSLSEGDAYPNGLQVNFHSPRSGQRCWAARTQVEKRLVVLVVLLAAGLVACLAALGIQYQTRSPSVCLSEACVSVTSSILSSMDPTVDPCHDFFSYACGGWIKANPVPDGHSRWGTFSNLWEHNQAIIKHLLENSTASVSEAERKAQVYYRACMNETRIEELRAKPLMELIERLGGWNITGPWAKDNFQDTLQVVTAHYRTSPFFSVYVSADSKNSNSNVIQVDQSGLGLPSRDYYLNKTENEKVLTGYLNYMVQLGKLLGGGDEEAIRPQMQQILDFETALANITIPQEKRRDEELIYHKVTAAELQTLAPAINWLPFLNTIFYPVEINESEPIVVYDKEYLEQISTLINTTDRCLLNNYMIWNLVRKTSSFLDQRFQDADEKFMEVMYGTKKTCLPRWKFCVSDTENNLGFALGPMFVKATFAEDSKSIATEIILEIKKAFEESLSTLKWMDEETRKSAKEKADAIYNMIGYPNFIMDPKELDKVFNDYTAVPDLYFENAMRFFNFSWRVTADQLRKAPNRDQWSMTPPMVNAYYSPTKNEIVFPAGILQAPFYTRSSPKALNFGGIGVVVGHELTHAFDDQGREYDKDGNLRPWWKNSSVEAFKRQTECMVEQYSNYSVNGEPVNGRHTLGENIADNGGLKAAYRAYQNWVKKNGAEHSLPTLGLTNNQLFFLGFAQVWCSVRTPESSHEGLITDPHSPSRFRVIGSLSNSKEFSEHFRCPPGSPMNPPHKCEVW

[2] = molecular target: T2, Endothelin-converting enzyme 1 (Homo sapiens, UniProt P42892); experiment: In vitro inhibition against recombinant human Endothelin converting enzyme 1 activity
T2 sequence (P42892 whole entry): T1 sequence (whole entry)

Neprilysin = Neprilysin (Homo sapiens, UniProt P08473)
Sequence of Neprilysin (P08473 whole entry): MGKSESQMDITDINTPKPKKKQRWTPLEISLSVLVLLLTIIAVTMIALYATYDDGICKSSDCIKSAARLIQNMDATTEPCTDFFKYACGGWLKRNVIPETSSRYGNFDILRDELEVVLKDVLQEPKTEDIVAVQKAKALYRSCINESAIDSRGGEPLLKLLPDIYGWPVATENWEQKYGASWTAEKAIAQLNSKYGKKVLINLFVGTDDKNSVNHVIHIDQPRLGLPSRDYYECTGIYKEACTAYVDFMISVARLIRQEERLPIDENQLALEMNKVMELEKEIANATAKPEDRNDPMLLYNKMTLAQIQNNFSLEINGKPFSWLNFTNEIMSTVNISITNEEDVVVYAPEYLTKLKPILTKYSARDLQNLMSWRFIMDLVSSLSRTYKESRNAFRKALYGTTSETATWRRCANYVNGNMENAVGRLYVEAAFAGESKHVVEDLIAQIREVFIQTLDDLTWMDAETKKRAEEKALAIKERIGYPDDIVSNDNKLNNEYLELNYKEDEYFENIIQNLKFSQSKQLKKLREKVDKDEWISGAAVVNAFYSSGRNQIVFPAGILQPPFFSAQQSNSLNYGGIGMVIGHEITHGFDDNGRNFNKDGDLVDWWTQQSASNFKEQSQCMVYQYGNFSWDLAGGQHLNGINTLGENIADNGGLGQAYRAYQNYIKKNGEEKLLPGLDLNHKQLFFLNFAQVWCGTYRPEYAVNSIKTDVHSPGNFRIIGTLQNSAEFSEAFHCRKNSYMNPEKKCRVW
Description: Inhibition of neutral endopeptidase 24.11(NEP)

SMILES | inhibition [1] | IC50 [2] | IC50 (Neprilysin)
O=P(O)(O)CN[C@@H](Cc1ccc(-c2ccccc2)cc1)c1nn[nH]n1 | 79% | – | –
O=P(O)(O)C(Cc1ccc2ccccc2c1)N[C@H](Cc1ccc(-c2ccccc2)cc1)c1nnn[nH]1 (some centres not stated) | 47% | 1400 nM | –
O=P(O)(O)CC(Cc1ccc(-c2ccccc2)cc1)c1nnn[nH]1 (configuration not stated) | 8% | – | –
O=P(O)(O)C(Cc1cccc2ccccc12)N[C@H](Cc1ccc(-c2ccccc2)cc1)c1nnn[nH]1 (some centres not stated) | 85% | 160 nM | –
CC(C)C[C@H](NP(=O)(O)O[C@@H]1O[C@@H](C)[C@H](O)[C@@H](O)[C@H]1O)C(=O)N[C@@H](Cc1c[nH]c2ccccc12)C(=O)O [PHOSPHORAMIDON] | 47% | – | 30 nM
O=C(O)CNC(=O)C(CS)Cc1ccccc1 (configuration not stated) [THIORPHAN] | 9% | > 100000 nM | –
O=P(O)(O)C(N[C@@H](Cc1ccc(-c2ccccc2)cc1)c1nnn[nH]1)c1cccc2ccccc12 (some centres not stated) | 14% | > 1000 nM | –
O=P(O)(CCc1ccc2ccccc2c1)N[C@@H](Cc1ccc(-c2ccccc2)cc1)c1nnn[nH]1 | 0% | – | –
O=P(O)(O)C(Cc1ccc2c(c1)OCO2)N[C@H](Cc1ccc(-c2ccccc2)cc1)c1nnn[nH]1 (some centres not stated) | 76% | 390 nM | –
O=P(O)(O)C(Cc1ccc2c(c1)OCO2)N[C@@H](Cc1ccc(-c2ccccc2)cc1)c1nnn[nH]1 (some centres not stated) | 85% | 93 nM | –
O=C(O)C[C@H](Cc1ccc(-c2ccccc2)cc1)NCP(=O)(O)O | 0% | – | –
O=C(O)[C@H](Cc1ccc(-c2ccccc2)cc1)NCP(=O)(O)O | 20% | – | –
O=P(O)(O)C(Cc1cccc2c1OCO2)N[C@H](Cc1ccc(-c2ccccc2)cc1)c1nnn[nH]1 (some centres not stated) | 50% | 1100 nM | –
O=P(O)(O)CN[C@@H](Cc1ccc(-c2ccccc2)cc1)c1nnn[nH]1 | – | 410 nM | –
O=P(O)(O)CN[C@@H](Cc1ccc(-c2ccccc2)cc1)c1nc[nH]n1 | 0% | – | –
O=P(O)(O)C(Cc1ccccc1)N[C@@H](Cc1ccc(-c2ccccc2)cc1)c1nnn[nH]1 (some centres not stated) | 83% | 280 nM | –

SMILES | inhibition [1] | IC50 [2] | IC50 (Neprilysin)
O=P(O)(O)C(N[C@H](Cc1ccc(-c2ccccc2)cc1)c1nnn[nH]1)c1cccc2ccccc12 (some centres not stated) | 49% | > 1000 nM | –
O=P(O)(O)CN[C@@H](Cc1ccc2ccccc2c1)c1nnn[nH]1 | 0% | – | –
O=P(O)(O)C(Cc1ccc2ccccc2c1)N[C@@H](Cc1ccc(-c2ccccc2)cc1)c1nnn[nH]1 (some centres not stated) [CGS-314447] | 91% | 45 nM | –
O=P(O)(O)CN[C@@H](Cc1c[nH]c2ccccc12)c1nnn[nH]1 | 10% | – | –
O=P(O)(O)C(Cc1cccc2ccccc12)N[C@@H](Cc1ccc(-c2ccccc2)cc1)c1nnn[nH]1 (some centres not stated) | 95% | 17 nM | –
O=P(O)(O)C(Cc1ccccc1)N[C@H](Cc1ccc(-c2ccccc2)cc1)c1nnn[nH]1 (some centres not stated) | 18% | 5000 nM | –
O=P(O)(O)CN[C@@H](Cc1ccccc1)c1nnn[nH]1 | 0% | – | –
O=P(O)(O)C(Cc1cccc2cccnc12)N[C@@H](Cc1ccc(-c2ccccc2)cc1)c1nnn[nH]1 (some centres not stated) | 93% | 23 nM | –
O=C(O)c1n[nH]c([C@H](Cc2ccc(-c3ccccc3)cc2)NCP(=O)(O)O)n1 | 14% | – | –
O=P(O)(O)CN[C@H](Cc1ccc(-c2ccccc2)cc1)c1nnn[nH]1 | 0% | – | –
SCC(Cc1ccc(-c2ccccc2)cc1)c1nnn[nH]1 (configuration not stated) | 26% | – | –
O=P(O)(O)CCC(Cc1ccc(-c2ccccc2)cc1)c1nnn[nH]1 (configuration not stated) | 0% | – | –
O=P(O)(O)C(Cc1cccc2c1OCO2)N[C@@H](Cc1ccc(-c2ccccc2)cc1)c1nnn[nH]1 (some centres not stated) | 87% | 110 nM | –
O=P(O)(O)C(Cc1cccc2cccnc12)N[C@H](Cc1ccc(-c2ccccc2)cc1)c1nnn[nH]1 (some centres not stated) | 22% | > 1000 nM | –
O=P(O)(O)CN[C@@H](CCc1ccccc1)c1nnn[nH]1 | 0% | – | –
